Experiments:
[1] = system: C2C12 myoblasts; experiment: Western blot of senescence and apoptosis markers in C2C12 myoblasts; assay type: cell-based, mouse; conditions: late passage C2C12 myoblasts, 6-hour NR treatment
Method: Cell culture and treatments. FACS sorted MuSCs were grown on a 10% Matrigel (Corning)-coated dish and flasks with Fams F-10 media (Gibco), supplemented with 20% fetal bovine serum (FBS, Gibco), 2.5 ng/ml basic fibroblast growth factor (bFGF, Sigma) and penicillin/streptomycin (1×, Gibco). Dishes were coated with 10% growth factor-free Matrigel solution on ice for 7 min then transferred to a 37° C. cell culture incubator overnight before use. Cells were grown for three generations in vitro before experiments with cells plated and passaged at 10^3 cells/ml and 50% confluencies, respectively. C2C12 mouse myoblasts were grown in DMEM (4.5 g/1 glucose, Gibco) supplemented with 10% FBS and penicillin/streptomycin (1×, Gibco). Western blotting. C2C12 cells were lysed in a buffer composed of 50 mM Tris, 150 mM KCl, EDTA 1 mM, NP40 1%, nicotinamide 5 mM, sodium butyrate 1 mM and protease inhibitors cocktail (Roche) at pH 7,4. Proteins were separated by SDS-PAGE and transferred onto nitrocellulose membranes. Blocking and antibody incubations were performed in 3% BSA. The following primary antibodies were used: anti-cleavage caspase 3 (Cell Signalling); Anti-γH2AX (Millipore); anti-β-actin (Sigma). All secondary antibodies were from Jackson Immunoresearch. […]

[2] = system: MuSCs; experiment: MuSCs transplantation from NR-treated aged donors into Mdx mice; assay type: in vivo; conditions: MuSCs from NR-treated aged donors vs controls, Mdx recipients, 4 weeks
Method: MuSCs transplantation. 5,000-8,000 double-sorted MuSCs isolated from NR or normal chow diet C57B/6J mice were resuspended in 10 μl of F10 media with 20% FBS and injected directly into cardiotoxin (CTX) pre-injured tibialis anterior (TA) muscle of Mdx mice 24hrs after the injury. The CTX pre-injury was performed as described above. Recipient mice were sacrificed 4 weeks after transplantation, TA muscle were harvested and prepared for cryosection.
Histology. TA muscles were harvested from anaesthetized mice and immediately frozen in Tissue-TEK® OCT compound (PST). 8-μm cryosections were collected and fixed with 4% paraformaldehyde, which are either stained with haematoxylin/eosin (HE) or antibodies. For immunostainings, heat activated antigen retrieval was performed in pH 6.0 citrate buffer for 10 min at 65° C. After washing with PBS-0.1% tween 20 (PBST), the sections were blocked with 10% affinipure Fab goat anti mouse IgG (Jackson Immunoresearch) in PBST for 60 min and PBST containing 2% BSA and 5% goat serum for 30 min at room temperature. Primary antibodies were then applied over night at 4° C. The following antibodies were used: anti-eMHC (Developmental Studies Hybridoma Bank, DSHB, University of Iowa), anti-Pax7 (DSHB, University of Iowa), anti-Laminin (Sigma). Subsequently, the slides were washed in PBST and incubated with appropriate secondary antibodies and labeling dyes. […]

[3] = system: C2C12 myoblasts; experiment: Respirometry on C2C12 myoblasts (OCR, ECAR); assay type: cell-based, mouse; conditions: C2C12 cells, NR vs PBS for 6 hours, FIG. 4J
Method: Cell culture and treatments were prepared according to description of Example 3. C2C12 mouse myoblasts were grown in DMEM (4.5 g/1 glucose, Gibco) supplemented with 10% FBS and penicillin/streptomycin (1×, Gibco). Cell transformation with Phb (Santa Cruz) and Phb2 shRNA (Santa Cruz) were performed using jetPEI DNA transfection kit (Polyplus), according to manufacturer's instructions. Cells were treated with 1 mM NR or PBS for 6 hours before cell harvesting or fixation. Respirometry on C2C12 myoblasts. Basal and uncoupled oxygen consumption rates (OCRs) and the extracellular acidification rate (ECAR) was measured using the Seahorse extracellular flux bioanalyzer (XF96, Seahorse Bioscience Inc.). To uncouple mitochondria, 5 uM of FCCP was injected after a basal respiration measurement. All measurements were performed in triplicates and results were normalized to total protein amount (C2C12 cells), assessed using a Bradford kit (Bio-Rad).

Compound: NC(=O)c1ccc[n+]([C@@H]2O[C@H](CO)[C@@H](O)[C@H]2O)c1 [NR, nicotinamide riboside]
- expression of cell senescence and apoptosis markers (γH2AX, cleaved caspase3) [1]: reduced the expression of cell senescence and apoptosis markers
- replenishment of MuSC compartment after transplantation [2]: more effectively replenished the MuSC compartment
- myogenesis of dystrophin-positive myofibers after transplantation ([2]; FIG. 3N): stimulated myogenesis of dystrophin-positive myo fibers
- glycolysis (ECAR) [3]: reductions in glycolysis
- oxidative respiration (OCR) [3]: increases in oxidative respiration

Reference: patent US10905704B2, “Agents and methods using thereof for the prevention and treatment of stem cell muscle disorders” (ECOLE POLYTECHNIQUE FEDERALE DE LAUSANNE (EPFL), priority 2015, dated 2021)
